Results: publication PMC10532587, “An Investigation of Structure–Activity Relationships and Cell Death Mechanisms of the Marine Alkaloids Discorhabdins in Merkel Cell Carcinoma Cells” (Marine Drugs, 2023)
Where two headings read alike, the source gives them in different places.

Tests used:
HaCaT = experiment: Cell survival by CellTiterGlo, control cells; format: cell-based, human; details: for IC50: Homo sapiens, HaCaT, control skin cell line, CellTiterGlo, normalized to DMSO, read-out: IC50 (nM) HaCaT; for AUC (arbitrary units) HaCaT: area under the dose-response curve, control cells
MCC13 = experiment: Cell survival by CellTiterGlo, VN-MCC line MCC13; format: cell-based; details: for IC50: CellTiterGlo, normalized to DMSO; for AUC (arbitrary units) MCC13: area under the dose-response curve
MCC26 = experiment: Cell survival by CellTiterGlo, VN-MCC line MCC26; format: cell-based; details: for IC50: CellTiterGlo, normalized to DMSO; for AUC (arbitrary units) MCC26: area under the dose-response curve
UISO = experiment: Cell survival by CellTiterGlo, VN-MCC line UISO; format: cell-based; details: for IC50: CellTiterGlo, normalized to DMSO; for AUC (arbitrary units) UISO: area under the dose-response curve
MKL-1 = experiment: Cell survival by CellTiterGlo, VP-MCC line MKL-1; format: cell-based; details: for IC50: MKL-1, CellTiterGlo; for AUC (arbitrary units) MKL-1: area under the dose-response curve
Waga = experiment: Cell survival by CellTiterGlo, VP-MCC line Waga; format: cell-based; details: for IC50: CellTiterGlo, normalized to DMSO; for AUC (arbitrary units) WaGa: area under the dose-response curve
[1] = tested on: control (HaCaT) and Merkel cell carcinoma cell lines; experiment: Cell survival by CellTiterGlo, all seven cell lines; format: cell-based; details: for IC50: Homo sapiens, HaCaT
Protocol: Three methods were employed for assessment of MCC and control cell survival/viability after discorhabdin treatment, two metabolic assays and a cell permeability assay. For all three methods, cells were plated in 384-well plates at 2500 cells/well and treated with various concentrations of discorhabdins for various time periods. CellTiterGlo^TM (Promega, Madison, WI, USA) measures cellular ATP content and was used to estimate potency of discorhabdins in cell viability assays as previously described. Continuous monitoring of metabolic activity was accomplished using a cellular reducing potential luminescence assay, the RealTime-Glo^TM MT Cell Viability Assay (Promega, Madison, WI, USA) according to manufacturer’s instructions. Loss of cell plasma membrane integrity was assessed using a cell-impermeant molecule that becomes fluorescent upon binding DNA [82] in parallel with apoptosis detection per manufacturer’s instructions (RealTimeGlo^TM Annexin V Apoptosis and Necrosis Assay-Promega). Two additional assays of apoptotic cell death were also used. Caspase activation in response to treatment of MCC cells by discorhabdins or bortezomib (as a positive control) was measured using the CaspaseGlo® 3/7 Assay (Promega, Madison, WI, USA) according to the manufacturer’s instructions at multiple time points. Inhibition of apoptotic cell death was investigated using pre-treatment of cells with for 1 h with the pan-caspase inhibitor Z-VAD-FMK (Enzo Life Sciences, Farmingdale, NY, USA) followed by treatment with discorhabdins or bortezomib and estimation of cell viability as outlined above.
In order to compare responses among all of the discorhabdins and cell lines (98 combinations), dose–response curves were generated using identical discorhabdin dilution series. GraphPad Prism 8 (San Diego, CA, USA) software was utilized to graph dose–response data and to calculate IC50 values and area under the dose–response curves (AUC) along with 95% confidence interval estimates using four-parameter logistic nonlinear regression analysis. For further analysis and comparisons, AUC for each cell line/discorhabdin pair was visualized in a heatmap generated in R version 1.3.1073 (R Core Team (2013). R: A language and environment for statistical computing. R Foundation for Statistical Computing, Vienna, Austria, http://www.R-project.org/ (accessed on 12 January 2023).
Figure S39: Activity of discorhabdins against M CC cell lines.
The indicated discorh abd ins were ass essed for th eir ability to affect surviv al of control (H aCaT) and Merkel cell carcino ma cell lines (VN-MCC: MCC13, MCC26, UISO and VP -MCC: MKL-1, MKL-2, Wag a). Cells were plat ed at 2500 cells/well and compounds the next day. Cell survival was estimated by CellTiterGlo (normalized to untreated (DMSO) cells on the same plate). Structures w ere o btained from the supplier and/or the PubChem database or as described in the text. Number in bold in ( ) refers to structures in Figure 1 in the text. Curves were plotted and IC50 values and 95% confidence interval calculated by GraphPad software. […]

MKL-2 = experiment: Cell survival by CellTiterGlo, VP-MCC line MKL-2; format: cell-based; details: for IC50: CellTiterGlo, normalized to DMSO; for AUC (arbitrary units) MKL-2: area under the dose-response curve
[2] = VP-MCC, normalized to DMSO, read-out: IC50 (nM) MKL-1
[3] = essentially inactive compounds, read-out: average IC50 against all the cell lines
[4] = CellTiterGlo, 10 µM highest concentration tested, read-out: IC50, all cell lines

Row | Compound | IC50 (HaCaT) | AUC (arbitrary units) HaCaT (HaCaT) | IC50 (MCC13) | AUC (arbitrary units) MCC13 (MCC13) | IC50 (MCC26) | AUC (arbitrary units) MCC26 (MCC26) | IC50 (UISO) | AUC (arbitrary units) UISO (UISO) | IC50 (MKL-1; [2]) | AUC (arbitrary units) MKL-1 (MKL-1; VP-MCC) | IC50 (Waga) | AUC (arbitrary units) WaGa (Waga) | IC50 [1, 3] | IC50 (MKL-2) | AUC (arbitrary units) MKL-2 (MKL-2) | IC50 [1, 4] | activity on cell viability, in words ([1]; MCC and control cell lines) | IC50 (MKL-1; printed in brackets beside the all-cell-lines bound, read-out: IC50 MKL-1)
1 | Cn1cnc(SC2=CC(=O)C=C3S[C@H]4C[C@@]23C2=C(N4)C(=O)c3[nH]cc4c3C2=NCC4)c1C[C@H](N)C(=O)O (relative stereo) [Compound 5, (+)-(6S,8S,7′S*) discorhabdin K] | > 10000 nM | 944.5 arbitrary units | > 10000 nM | 837.7 arbitrary units | > 10000 nM | 841.3 arbitrary units | 8300 nM | 767.7 arbitrary units | 3030 nM | 335 arbitrary units | 6150 nM | 660.5 arbitrary units | > 5 µM | – | – | – | – | –
2 | O=C(O)CNC1C2C(=O)C=C3SC4CC31C1=C(N4)C(=O)c3[nH]cc4c3C1=[N+]2CC4 (single isomer, unassigned; (-)) [Compound 13] | > 10000 nM | 909 arbitrary units | 3820 nM | 478.7 arbitrary units | > 6000 nM | 719.3 arbitrary units | 3420 nM | 436.7 arbitrary units | 682 nM | 83.43 arbitrary units | 1560 nM | 200.7 arbitrary units | – | 2910 nM | 391.1 arbitrary units | – | – | –
3 | O=C1C=C2S[C@H]3C[C@]2(C=C1Br)C1=C(N3)C(=O)c2[nH]cc3ccnc1c23 [Compound 3, (+)-(6S,8S) discorhabdin Q] | 5450 nM | 604.2 arbitrary units | 3500 nM | 419.1 arbitrary units | 3760 nM | 432.3 arbitrary units | 3850 nM | 447.9 arbitrary units | 3440 nM | 389.4 arbitrary units | 3290 nM | 405.1 arbitrary units | – | 2040 nM | 350.1 arbitrary units | – | – | –
4 | CSC1=CC(=O)C=C2S[C@H]3C[C@@]12C1=C(N3)C(=O)c2[nH]cc3c2C1=NCC3 [Compound 7, (+)-(6R,8S) thiomethyldiscorhabdin G*/I] | 7960 nM | 745.5 arbitrary units | 4500 nM | 495.1 arbitrary units | 7890 nM | 638.2 arbitrary units | 3270 nM | 360.8 arbitrary units | 1230 nM | 144.5 arbitrary units | 2990 nM | 321.6 arbitrary units | – | – | – | – | – | –
5 | O=C1C=C(S(=O)(=O)O)[C@@]2(C=CNC3=C2C2=NCCc4c[nH]c(c42)C3=O)C=C1Br [Compound 9, (+)-(6S) sulphonyl-7,8-dehydrodiscorhabdin E] | – | 911.5 arbitrary units | – | 882.5 arbitrary units | – | 793.9 arbitrary units | – | 914.8 arbitrary units | – | 917.6 arbitrary units | – | 949.7 arbitrary units | > 5 µM | – | – | > 10 µM | practically inactive | –
6 | O=C1C2=C3C4=[N+](CCc5c[nH]c1c54)[C@H]1C[C@@]34C[C@@H](N2)SC4=CC1=O [Compound 11, (+)-(2S,6R,8S) discorhabdin D] | > 6000 nM | 715.8 arbitrary units | 5000 nM | 540.6 arbitrary units | 5850 nM | 653.2 arbitrary units | 3620 nM | 423.9 arbitrary units | 497 nM | 60.49 arbitrary units | 1810 nM | 216.6 arbitrary units | – | 865 nM | 143.2 arbitrary units | – | – | –
7 | O=C1C2=C(C3=NCCc4c[nH]c1c43)C1(C=C(Br)C(O)C(Br)=C1)CCN2 (stereo not shown) [Compound 16, 3-dihydrodiscorhabdin C] | 4130 nM | 454.5 arbitrary units | 3470 nM | 404 arbitrary units | 4700 nM | 543.3 arbitrary units | 3090 nM | 375.8 arbitrary units | 1630 nM | 195.9 arbitrary units | 3200 nM | 370.5 arbitrary units | – | 1940 nM | 277.4 arbitrary units | – | – | –
8 | O=C1C(Br)=CC2(C=CNC3=C2C2=NCCc4c[nH]c(c42)C3=O)C=C1Br [Compound 20, 7,8-dehydrodiscorhabdin C] | > 10000 nM | 940.1 arbitrary units | 7480 nM | 694.4 arbitrary units | ~10000 nM | 815.8 arbitrary units | 5570 nM | 542.4 arbitrary units | 3260 nM | 376.3 arbitrary units | 7430 nM | 661 arbitrary units | > 5 µM | – | – | – | – | –
9 | O=C1C=CC2(C=C1)CCNC1=C2C2=NCCc3c[nH]c(c32)C1=O [Compound 21, didebromodiscorhabdin C] | – | 952.2 arbitrary units | – | 883 arbitrary units | – | 866.1 arbitrary units | – | 851.9 arbitrary units | – | 682.4 arbitrary units | – | 973.8 arbitrary units | > 5 µM | – | – | > 10 µM | – | > 5000 nM
10 | Cn1cc2c3c1C(=O)C1=C(C3=NCC2)[C@]2(C=CC(=O)C(Br)=C2)CCN1 [Compound 23, (+)-(6S)-N-13-methyldiscorhabdin E] | 2980 nM | 319.6 arbitrary units | 1290 nM | 155.7 arbitrary units | 2880 nM | 306.3 arbitrary units | 781 nM | 90.78 arbitrary units | 186 nM | 23.33 arbitrary units | 546 nM | 65.1 arbitrary units | – | – | – | – | – | –
11 | O=C1C2=C(C3=NCCc4c[nH]c1c43)c1c(cc(Br)c(O)c1Br)CCN2 [Compound 24, discorhabdin C phenol] | > 10000 nM | 884.9 arbitrary units | 4640 nM | 528.6 arbitrary units | 6920 nM | 708.7 arbitrary units | 4210 nM | 493.2 arbitrary units | 2330 nM | 279.7 arbitrary units | 5460 nM | 611.2 arbitrary units | – | – | – | – | – | –
